“And” between values parts separate entries of the source, which are not always exact repeats. Equal values may be shown once.
Experiments:
splenocytes = assay: Splenocyte proliferation assay (3H-thymidine) following subcutaneous vaccination of mice with TG02; format: cell-based, BALB/c mice; settings: 1 μg/200 μL ConA, 5 days
Description: In this Example, mice were repeatedly vaccinated subcutaneously with TG02, in order to analyse the immune response. Following the vaccination, splenocytes were harvested, and the proliferative response of the splenocytes was measured.
The study was conducted with 3 groups, each compromising 10 female BALB/c mice. The start of the study was performed on two separate days on which 5 of the animals per group were treated. Therefore the groups were divided into part I and part II. The animals were treated subcutaneously at different time points (Table 12).
In all groups the test item was administered at repeated time points (Table 15) by subcutaneous injection between the nape of the neck and the shoulder. The application volume for all groups was 0.1 mL (0.80 mg TG02).
The spleen of all animals was removed, transferred to cell culture medium (RPMI 1640 medium supplemented with 10% FCS, 100 U/ml Penicillin, 100 μg/mL Streptomycin, 2 mM L-Glutamine, and 50 μM beta-mercaptoethanol) and stored on ice. All steps were performed sterile and cells were kept on ice.
A single cell suspension from splenic cells was generated using a cell strainer. After centrifugation (350 g, 5 min, 5±3° C.), supernatant was removed and the cell pellet was resuspended in ACK buffer and incubated for 5 min at RT. 10 mL cell culture medium was added. The samples were left 5 min on bench top to let the cell debris sediment. The suspension above the cell debris was transferred into another tube and was centrifuged (350 g, 5 min, 5±3° C.). The supernatant was removed and the cell pellet was resuspended in 10 mL cell culture medium. After counting of cells, 0.2 Mio cells were seeded in a 96 well plate (180 μL per well; 1,1 *10^6 cells/mL). 9 replicates were plated on each plate for each spleen. • (1) 1 plate for harvesting of supernatant for cytokine measurement after 24 h (results not shown) • (2) 1 plate for harvesting of supernatant for cytokine measurement after 48 h (results not shown) • (3) 1 plate for the proliferation assay
The following stimulations were performed: • 3 replicates: unstimulated (addition of 20 μL cell culture medium) • 3 replicates: stimulation with 10 μM TG02 (8 peptides, 10 μM end concentration per peptide, addition in 20 μL cell culture medium) • 3 replicates: stimulation with 1 μg/200 μL, ConA (Concanavalin A) (addition of 1 μg ConA in 2.0 μL cell culture medium)
Incubation at 37° C. and 5% CO2 for 24 h (1), […] or 5 days (3).
Proliferation Assay • (3) After 5 days, 1 μCi/well ^3H-Thymidine was added to the samples, which were then incubated for 18 h at 37° C. and 5% CO2. The plates were then frozen at ≤−20° C.
Plates were thawed at RT. After washing off the harvester, the samples were transferred to a filter plate using the harvester followed by 5 washing steps using water. Filter plates were dried at RT overnight. A foil was stuck to the bottom of the filter plates and 20 μL scintillation fluid was added to the wells. After incubation of 1 h at RT, the samples were measured using a TopCount NXT and the stimulation index (SI) was calculated. SI=CPM of stimulated samples/CPM of control samples.

T cells = assay: 3-days T cell proliferation assay (3H-thymidine) after three rounds of in vitro stimulation of PBMC bulk cultures with RAS peptides; format: cell-based, human; settings: bulk cultures stimulated three rounds with TG02 + 13R, 10 μM peptide
Description: In this example, Buffy coats were collected from 4 normal human donors (Buffy 1, Buffy 2, Buffy 3, and Buffy 4) and were cultured in vitro. The in vitro PBMCs were stimulated with a single RAS peptide or a mixture of RAS peptides, and T cell proliferation assays performed.
The procedure must be performed at room temperature until point 5. All handling of cells in the open is done in a vertical laminar flow hood. • 1. Rapidly transfer the vials, each vial with frozen PBMC from a buffy coat (Buffy 1, Buffy 2, Buffy 3, and Buffy 4), to a water bath at 37° C. • 2. Shake the vials manually at regular intervals (approx. 2-3 min.) and remove them from the water bath while some ice is still present. • 3. When all the ice is melted, transfer 1 ml of CellGro DC medium drop-wise to the cell suspension. • 4. Transfer the cell suspension to a 50 ml tube containing 20 ml of CellGro DC medium. • 5. Centrifuge cells at 500 G for 5 min at room temperature. • 6. Resuspend the cells in 5 ml CellGro DC medium, • 7. Count the number of viable cells using a Bürker chamber or KOVA Galsstic slides and adjust the cell concentration to 2×10^6cells/ml in complete CellGro DC medium (see recipe). Total cell numbers: Buffy 1-45×10^6, Buffy 2-27.5×10^6, Buffy 3-40.5×10^6, and Buffy 4-40.5×10^6 cells. b. Bulk Cultures for Increasing Number of RAS Peptide Reactive T Cells • 1. […]

Substance | Counts per minute (CPM), Splenocytes + ConA, mean (splenocytes; Mean Mouse #4, vaccinated with TG02) | Counts per minute (CPM), Splenocytes + ConA, mean (splenocytes; Mean Mouse #7, vaccinated with TG02) | Counts per minute (CPM), Splenocytes + ConA, mean (splenocytes; Mean Mouse #24, vaccinated with TG02 + ViscoGel) | Counts per minute (CPM), Splenocytes + ConA, mean (splenocytes; Mean Mouse #29, vaccinated with TG02 + ViscoGel) | Counts per minute (CPM), Splenocytes + ConA, replicate (splenocytes; Mouse #4, vaccinated with TG02) | Counts per minute (CPM), Splenocytes + ConA, replicate (splenocytes; Mouse #7, vaccinated with TG02) | Counts per minute (CPM), Splenocytes + ConA, replicate (splenocytes; Mouse #24, vaccinated with TG02 + ViscoGel) | Counts per minute (CPM), Splenocytes + ConA, replicate (splenocytes; Mouse #29, vaccinated with TG02 + ViscoGel) | Counts per minute (CPM), Splenocytes + ConA, mean (splenocytes; Mouse #30 (last line, mean), vaccinated with TG02 + ViscoGel) | Counts per minute (CPM), Splenocytes + ConA, replicate (splenocytes; Mouse #30, vaccinated with TG02 + ViscoGel) | Counts per minute (CPM), APC + T cell + 13C, replicate (T cells; Donor #3) | Counts per minute (CPM), APC + T cell + 13C, mean (T cells; Mean Donor #3)
Concanavalin A [ConA] | 15,210 CPM | 6158 CPM | 8823 CPM | 10,935 CPM | 15,113 CPM and 12,612 CPM and 17,906 CPM | 5305 CPM and 6252 CPM and 6916 CPM | 7834 CPM and 8578 CPM and 10,057 CPM | 9480 CPM and 13,292 CPM and 10,033 CPM | 36,687 CPM | 32,205 CPM and 35,668 CPM and 42,149 CPM |  | 
KLVVVGAGCVGKSALTI (listed as Homo sapiens) [13C] |  |  |  |  |  |  |  |  |  |  | 27813 CPM and 32522 CPM and 28869 CPM | 29735 CPM

From US10596239B2, “Peptide mixture” (TARGOVAX ASA, priority 2013, dated 2020)
